Patent publication US20220023315A1, “METHODS OF ACTIVATING MICROGLIAL CELLS” (THE RESEARCH FOUNDATION FOR THE STATE UNIVERSITY OF NEW YORK, priority 2018, published 2022)
Entries after “also recorded” stand apart in the source; their conditions may differ.

What was measured:
primary microglia [1] = assay: Phagocytosis of FITC-labeled amyloid beta, primary microglia (flow cytometry); type: cell-based, mouse; conditions: 16 hours, 1.25 μM, then 1 hour beta amyloid-FITC
[2] = Detection of K161 in brain tissue by mass spectrometry after single dosing; type: in vivo; conditions: mice; for detection in brain tissue: 48 hr or 96 hr after administration, mass spectrometry
Description: Tissues were harvested 48 hr or 96 hr after administration, and K161 was detected by mass spectrometry and quantitated against a known concentration of K161 spiked into either serum or brain tissue homogenate (FIG. 13A). The calibration curves for K161 are shown in FIGS. 13B and 13C, with the added experimental data points in FIG. 13D. The concentrations of K161 in the brain tissue samples were calculated from the linear characteristics of the standard curve FIG. 13E.

primary microglia [3] = assay: Phagocytosis of PI-stained dead neurons, primary microglia (flow cytometry); type: cell-based, mouse
Source text: (§1) Next it was investigated if microglial can phagocytose dead neurons, and to what extent the phagocytosis of dead neurons is enhanced by SHIP inhibitors. Dead neurons were stained with propidium iodide. Propidium iodide is a fluorescent compound that binds to a cell's DNA and can be used to stain dead cells. The phagocytosis of propidium iodide (PI)-stained dead neurons by microglia was investigated by flow cytometry (FIG. 6). […] (FIG. 6C). […] Pan-SHIP inhibition increased phagocytic activity of microglial cells towards dead neurons.

[4] = system: AKT, p-mTOR, p-S6 in primary microglia cells; assay: Expression of signaling kinases, primary microglia; type: cell-based, mouse
Description: (§2) Using both Western blotting and intracellular flow (icFlow) assays activation of key signaling kinases that are known to control proliferation, survival and effector functions in immune cells were examined. This included probing for phosphorylated forms of Akt, ERK, mTOR (p-mTOR) and S6 (p-S6). BV2 cells were incubated with a series of pan-SHIP inhibitors. […] In FIG. 8E, the effect of 3AC on BV2 cells is depicted, as assessed by Western Blotting, with actin and HSP90 as loading controls.

[5] = Serum levels after single dose IP or oral gavage; type: in vivo, mice
Description: To assess oral bioavailability, K118 and K161 were administered in a single dose of 10 mg/kg either by IP or by oral gavage, and levels of each were measured in serum (FIG. 14).

[6] = system: p-mTOR (Ser2448) and p-S6 in BV2 cells; assay: Western blotting and intracellular flow of signaling kinases, BV2 cells; type: cell-based; conditions: for mTOR phosphorylation at Ser2448: microglia (BV2), Western blotting / icFlow
Description: as §2

BV2 cells [7] = assay: Phagocytosis of FITC-labeled amyloid beta (1-42), BV2 cells (flow cytometry, confocal); type: cell-based; conditions: for beta amyloid phagocytosis: BV2 cells, 16 hours, 3.75 μM, then 1 hour beta amyloid-FITC
Description: It was investigated if the enhanced phagocytic activity of microglia towards lysotracker and dead neurons extended to the enhanced phagocytosis of amyloid proteins. Flow cytometric assays were conducted to detect and compare the ability of SHIP inhibitor compounds to enhance the phagocytosis of amyloid beta 1-42 coupled to FITC. These assays provided a means to compare the ability of SHIP inhibitor compounds to promote a crucial effector function of microglia in the brain that is highly relevant for the pathology of Alzheimer's disease.
Cells were then washed twice and analyzed by flow cytometry for the presence of FITC-labeled amyloid beta (1-42). […] FIG. 7F-H show the confocal images of fixed BV2 cells incubated with beta amyloid with and without K161.

[8] = system: CD11b+CD45low cell population (microglial cells) of the cerebral hemispheres; assay: K161-treated mice: phagocytic activity of brain cell populations; type: in vivo
Description: In a subsequent experiment, mice were treated twice a week for two weeks with K161. A single cell suspension of the cerebral hemispheres was prepared from K161 (10 mg/kg) and vehicle (H20)-treated mice (n=10/group). Mice were treated twice a week for two weeks, the brains harvested by flow cytometry (FIG. 12A). Box & whisker plots of frequency of single population gated on live cells singlets for markers CD11b, CD45 and ACSA2 (FIG. 12B). The ability of the various cell types to phagocytose dead neurons, beta amyloid and LysoTracker in the absence or presence of K61 are shown in FIG. 12I to 12K. A single cell suspension of the cerebral hemispheres was prepared from K161 (10 mg/kg) and vehicle (H2O)-treated mice (n=10/group). Mice were treated twice a week for two weeks, the brains harvested by flow cytometry. Box & whisker plots of dead neuron (FIG. 12I), beta amyloid (FIG. 12J) and lysotracker assay (FIG. 12K) are shown on a single brain population gated on live cells, singlets and surface markers CD11b, CD45 and ACSA2.
Therefore, SHIP inhibitors, and particularly those that inhibit both SHIP1 and SHIP2, or selectively SHIP2 (e.g., AS1949490—available from commercial suppliers such as Sigma Aldrich and Tocris), can increase microglial phagocytic capacity to remove dead neurons from the CNS.

BV2 cells [9] = assay: Phagocytosis of PI-stained dead neurons, BV2 cells (flow cytometry); type: cell-based; conditions: for phagocytosis of dead neurons, selective inhibitors alone or combined: BV2 cells (FIG. 6C)
Source text: as §1

BV2 cells [10] = assay: LysoTracker Red staining of lysosomal/phagosomal compartment, BV2 cells (flow cytometry, confocal); type: cell-based; conditions: for LysoTrackerRed MFI (phagosomal compartment size): BV2 cells treated 16 hr, 3.75 μM and 5 μM, vs diluent control; for phagosomal compartment size (LysoTrackerRed staining): BV2 cells treated 20 hr, 50 nM LysoTrackerRed
Description: Flow cytometric assays were conducted to detect and compare the ability of SHIP inhibitor compounds to increase the phagocytic capacity of microglia as determined by LysoTracker Red staining which is preferentially retained and fluoresces in the acidic environment of the lysosomal/phagosomal subcellular compartment. BV2 cells were treated for 20 hr with 3AC, K118 or K149 at the indicated doses vs. their respective diluent controls, washed twice and incubated with 50 nM LysoTrackerRed and then analyzed by flow cytometry (FIG. 5). Histograms of the LysoTrackerRed staining for each compound at the indicated dose or their diluent control (0 μM) are shown. […] K118 repeated towards BV2 cells (FIG. 5D, 5E) and primary microglial cells (FIG. 5F, 5G). BV2 cells were treated for 16 hr with the indicated K118 concentration and incubated with LysoTrackerRed (50 nM), washed twice and then analyzed by flow cytometry and compared to similarly treated vs. their diluent control primary microglia (0.5% DMSO). Histograms of LysoTrackerRed staining for K118 (Red-3.75 μM, Green-5 μM) or diluent control (Blue, shaded) are shown. In FIG. 5E, line and whisker plots are shown for the mean fluorescence intensity (MFI) of LysoTrackerRed staining at the indicated concentrations of K118.
Pan-SHIP1/2 inhibition increased microglial lysosomal/phagosomal compartment.

BV2 cells [11] = assay: CCK-8 assay of cell growth, BV2 cells; type: cell-based; conditions: 48 hr
Description: (§3) The ability of 3AC, K118 and K149 to promote the proliferation of BV2 and SIM-A9 microglial cells was tested in vitro. Cells were counted with a cell counting kit-8 (e.g. CCK-8) which is a sensitive colorimetric assays for the determination of cell viability in cell proliferation and cytotoxicity assays. It uses the highly water-soluble tetrazolium salt, WST-8, which is reduced by dehydrogenase activities in cells to give a yellow-color formazan dye, which is soluble in the tissue culture media. The amount of the formazan dye, generated by the activities of dehydrogenases in cells, is directly proportional to the number of living cells.
(§4) A CCK-8 assay was performed for analysis of cell growth of BV2 cells (FIG. 4A), and SIM-A9 cells (FIG. 4B) vs. their respective vehicle controls (100%) at 48 hr. Each point represents the mean of the 6 replicates for each dose.

SIM-A9 cells [12] = assay: CCK-8 assay of cell growth, SIM-A9 cells; type: cell-based; conditions: 48 hr
Description: as §3, §4

SIM-A9 cells [13] = assay: Phagocytosis of PI-stained dead neurons, SIM-A9 cells (flow cytometry); type: cell-based; conditions: Torin with K161
Source text: as §1

[14] = 10 mg/kg twice a week for two weeks, vs vehicle

In the case of `Cc1c(CCN)c2ccccc2n1Cc1ccccc1Cl.Cl`, the melting point is reported as 161 to 169 °C.

In the case of `CC[C@H]1CC[C@H]2[C@@H]3C[C@@H](O)C4C[C@H](N)CC[C@]4(C)[C@H]3CC[C@]12C` (stereo partly shown), the melting point is reported as 193 to 195 °C.

In the case of `C[C@@]12CCC[C@H]1C1CC[C@H]3C[C@H](N)[C@H](N)C[C@]3(C)[C@H]1CC2.Cl.Cl` (stereo in doubt) [K161, (2R,3S,5S,8R,9S,10S,13S,14S)-10,13-dimethylhexadecahydro-1H-cyclopenta[a]phenanthrene-2,3-diaminium Chloride], the beta amyloid phagocytosis (primary microglia [1]) is reported as “Significant increases in beta amyloid phagocytosis”, the “blood brain barrier penetration” value ([2]; 10 mg/kg IP or oral gavage) is reported as “can penetrate the blood brain barrier” and the “detection in brain tissue” value ([2]; 10 mg/kg IP) is reported as “detectable in the brain tissue”. The “detection in brain tissue” value ([2]; 10 mg/kg oral gavage) was “detectable in the brain tissue”, the “phagocytic activity towards dead neurons” value (primary microglia [3]; primary microglia, 16 hr, 1.25 μM) was “enhanced the phagocytic activity” and the “activation of AKT” value [4] was “activated AKT”. For the same molecule, the “activation of p-S6” value [4] was “not p-mTOR or p-S6”, the “activation of p-mTOR” value [4] was “not p-mTOR or p-S6” and the “decay in vivo, compared” value ([5]; mouse, in vivo, 10 mg/kg) was “decay more rapidly in vivo than K118”. The oral bioavailability ([5]; single dose 10 mg/kg IP or oral gavage, levels in serum) was “have oral bioavailability”, the p-S6 expression ([6]; BV2 cells) was “increase in p-S6 expression” and the “p-mTOR (Ser2448) expression, mean fluorescence intensity” value ([6]; BV2 cells, 16 hr, intracellular flow) was “significantly increased p-MTOR expression”. For the same molecule, the “mTOR phosphorylation at Ser2448” value [6] was “increase mTOR phosphorylation at Ser2448”, the beta amyloid phagocytosis (BV2 cells [7]) was “Significant increases in beta amyloid phagocytosis; also recorded: significantly increased” and the “phagosomal component, confocal images” value (BV2 cells [7]; fixed BV2 cells incubated with beta amyloid) was “the phagosomal component is increased”. The “ability to phagocytose beta amyloid, CD11b+CD45low cells” value [8, 14] was “increased ability to phagocytose dead neurons and beta amyloid”, the “ability to phagocytose dead neurons, CD11b+CD45low cells” value [8, 14] was “increased ability to phagocytose dead neurons and beta amyloid” and the “size of the phagosomal compartment in subsets of microglial cells in the brain” value ([8]; intraperitoneal injection twice a week for two weeks) was “increased the size of the phagosomal compartment”.

In the case of `CC(C)CCC[C@@H](C)[C@H]1CC[C@H]2[C@@H]3CCC4C[C@H](N)CC[C@]4(C)[C@H]3CC[C@]12C` (stereo partly shown) [3AC], the “phagocytosis of dead neurons, selective inhibitors alone or combined” value (BV2 cells [9]) is reported as “not either of those inhibitors alone, increased phagocytosis”, the “LysoTrackerRed MFI (phagosomal compartment size)” value (BV2 cells [10]) is reported as “statistically significant increase in the phagosomal compartment size” and the “phagosomal compartment size (LysoTrackerRed staining)” value (BV2 cells [10]) is reported as “only a modest increase”. The “mTOR phosphorylation at Ser2448” value [6] was “increase mTOR phosphorylation at Ser2448”.

In the case of `C[C@H](NC(=O)c1sccc1OCc1ccc(Cl)cc1)c1ccccc1` [AS1949490], the “phagocytosis of dead neurons, selective inhibitors alone or combined” value (BV2 cells [9]) is reported as “not either of those inhibitors alone, increased phagocytosis”.

With `CSc1ccc2c(c1)c(CCN)c(C)n2Cc1ccc(Cl)cc1Cl` [K149] the “cell growth vs. vehicle control (100%)” value (BV2 cells [11]) was “showed effects at 2.5, 3.75 and 5 μM concentrations”, the “LysoTrackerRed MFI (phagosomal compartment size)” value (BV2 cells [10]) was “statistically significant increase in the phagosomal compartment size” and the “phagosomal compartment size (LysoTrackerRed staining)” value (BV2 cells [10]) was “robust increases”. The “cell growth (proliferation) vs. vehicle control (100%)” value (SIM-A9 cells [12]) was “an effect on proliferation was observed”, the “mTOR phosphorylation at Ser2448” value [6] was “increase mTOR phosphorylation at Ser2448” and the beta amyloid phagocytosis (BV2 cells [7]) was “Significant increases in beta amyloid phagocytosis; also recorded: significantly increased”.

For Torin, the “effect on K161-enhanced phagocytosis of dead neurons” value (from here on “effect on K161-enhanced phagocytosis”) (primary microglia [3]; primary microglial cells, Torin with K161) was “did not abolish the increase in phagocytosis of dead neurons by K161”, the “effect on K161-enhanced phagocytosis” value (BV2 cells [9]; BV2 cells, Torin with K161) was “did not abolish the increase in phagocytosis of dead neurons by K161” and the “effect on K161-enhanced phagocytosis” value (SIM-A9 cells [13]) was “did not abolish the increase in phagocytosis of dead neurons by K161”.
